For this assay, the target named is T1, EphrinB2-EphB4 (Homo sapiens, UniProt P54760).
T1 construct: soluble human EphB1-His, EphB2-His, and EphB4-His ectodomains; commercially available human EphrinB1-Fc (EB1), EphrinB2-Fc (EB2), and EphrinB3-Fc (EB3) ectodomain proteins; purchased
T1 sequence (P54760 16-539 limits assumed): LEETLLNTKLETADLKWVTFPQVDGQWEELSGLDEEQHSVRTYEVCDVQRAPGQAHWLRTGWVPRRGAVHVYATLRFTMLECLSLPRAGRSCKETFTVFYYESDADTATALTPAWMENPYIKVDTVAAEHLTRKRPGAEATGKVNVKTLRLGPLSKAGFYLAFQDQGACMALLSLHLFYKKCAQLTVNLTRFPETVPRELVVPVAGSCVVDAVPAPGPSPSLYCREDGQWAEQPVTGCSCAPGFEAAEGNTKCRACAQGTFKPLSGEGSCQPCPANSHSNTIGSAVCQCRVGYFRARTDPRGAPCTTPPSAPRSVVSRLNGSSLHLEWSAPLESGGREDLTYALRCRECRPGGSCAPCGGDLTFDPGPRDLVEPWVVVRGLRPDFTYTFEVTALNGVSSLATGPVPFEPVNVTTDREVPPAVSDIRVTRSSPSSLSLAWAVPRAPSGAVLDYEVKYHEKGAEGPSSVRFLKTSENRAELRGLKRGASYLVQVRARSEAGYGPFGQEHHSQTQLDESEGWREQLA
In words: Octet, immobilized human EphrinB2 binding to 50 nM soluble human EphB4. Here is the method: Studies were conducted to confirm that A20 chemicals can effectively target the human Eph/Ephrin proteins. Octet system was used to first characterize the biophysical interactions of the human B class Eph and Ephrin proteins, and then was tested to assess how A20 may disrupt the interactions. Since the human and rodent proteins are highly conserved, and essentially identical, with EphB2 sharing 99.5% identity between human and mouse, with only 5 of ~1,000 amino acids different, any species-specific differences were not anticipated. Therefore, commercially available human EphrinB1-Fc (EB1), EphrinB2-Fc (EB2), and EphrinB3-Fc (EB3) ectodomain proteins were sparsely immobilized onto biosensors and then exposed to 50 nM of soluble human EphB1-His, EphB2-His, and EphB4-His ectodomains for 800 sec association and 1,000 sec dissociation steps with a total of nine different interactions analyzed. In the absence of A20 chemical, the immobilized human EphrinB proteins bound to their appropriate human EphB target proteins; with EphrinB1 only bound EphB1 and EphB2, EphrinB2 bound all three EphB1, EphB2, and EphB4, and EphrinB3 only bound EphB1 and EphB2 (FIG. 19A-19B). […]
(In general: Biolayer interferometry detects binding as a change in optical thickness at a sensor tip.)

The values below come from patent US20260374739A1, “SMALL MOLECULAR WEIGHT CHEMICAL COMPOUND TO ANTAGONIZE EPH-EPHRIN TETRAMERIZATION AND INHIBIT BIDIRECTIONAL SIGNALING” (THE BOARD OF REGENTS OF THE UNIVERSITY OF TEXAS SYSTEM, priority 2022, published 2026).

In the case of `Oc1c(Br)cc(CN2CCOCC2)c2cccnc12` [Compound 5, 7-bromo-5-(morpholinomethyl)quinolin-8-ol], for the setting “A20 salt up to 100 μM”, the “absolute IC50” value is “absence of an absolute IC50”. For the setting “in presence of A20, role: inhibitor, 5° without”, the association slope was found to be 3 °.
